Source: PMC9873809, “Identification of a human estrogen receptor α tetrapeptidic fragment with dual antiproliferative and anti-nociceptive action” (Scientific Reports, 2023)
Entries after “also recorded” stand apart in the source; their conditions may differ. Like-named read-outs stand apart in the source and are kept apart here. No end group written: not given here.

Key:
[1] = system: tactile hypersensitivity in the murine CFA model; assay: von Frey test in Complete Freund's Adjuvant (CFA) inflammatory pain model; assay type: in vivo, C57BL/6j mice; conditions: for 50% paw withdrawal threshold (PWT): seven days after CFA, mean ± SEM, n = 8 mice
Protocol: Experiments were performed according to ethical guidelines established by the International Association for the Study of Pain (IASP) and the relevant European legislation (Directive 2010/63/EU). They were also approved by the Auvergne Animal Experiment Ethics Committee, CE2A and the French Ministry of Higher Education and Innovation. Eight-week-old male C57BL/6j mice were purchased from Janvier Laboratories (Le Genest-Saint-Isle, France), housed under standard laboratory conditions (12 h light/dark cycle, temperature of 21 to 22 °C, 55% humidity under specific pathogen free conditions) and acclimatized for a week before testing. Food and water were available ad libitum.
Design, analysis and reporting were carried out in accordance with the ARRIVE guidelines[56]–[58]. To ensure the methodological quality of the study, Rice et al. recommendations were followed. Animals were randomly divided into eight mice per group. To assess different treatment effects over the same time interval and to avoid, thereby, unverifiable and time-variable environmental influence, treatments were administered following the method of equal blocks. All experiments were performed in a quiet room by the same blinded experimenter. ERα17p and PLMI peptides were dissolved in a saline solution prior to intraperitoneal administration (10 mL/kg).
A persistent inflammatory pain model was produced by injection under brief anesthesia (2.5% isoflurane inhalation) of Complete Freund's Adjuvant (CFA, 10 µL) on the left ankle joint of mice[60]. CFA consisted of Mycobacterium butyricum (Difco Laboratories, Detroit, USA) dissolved in paraffin oil and saline (0.9% NaCl). The solution was autoclaved 20 min at 120 °C. Behavior tests were performed before and seven days after CFA injection.
On behavior testing day, the mice were placed individually in Plexiglas compartments (8 cm (L) × 3.5 cm (W) × 8 cm (D)) and on an elevated wire mesh platform to allow access to the ventral surface of the hindpaws, and were allowed to acclimatize for one hour before testing. Von Frey filaments (0.02 to 1.4 g) were applied perpendicularly to the plantar surface of the paw. Paw withdrawal and licking were considered as positive responses. 50% paw withdrawal threshold (PWT) was determined using an adaptation of the Dixon up–down method, as described previously.
All data were analyzed using the Prism 8 software (GraphPad™ Software Inc., San Diego, CA). Data were tested for normality (Shapiro–Wilk test) and equal variance (Fisher test). For kinetic data, multiple measurements were compared with repeated measures (two-way ANOVA). Post hoc comparisons were performed by the Tukey’s test. […] AUC was expressed as mean ± SEM (g × min). […]

[2] = ThT fluorescence kinetics of fibril/aggregate formation; assay type: physicochemical; conditions: ThT 10 μM, mean of triplicate
Protocol: Fibrils were detected by measuring the fluorescence intensity of Thioflavin T (ThT)[53]. A plate reader (Fluostar Optima, BMG LabTech, Ortenberg, Germany) and standard 96-wells flat-bottom black microtiter plates (Costar 3792, Sigma Aldrich, Saint-Louis, USA) were used in combination with excitation and emission filters, at 440 and 485 nm, respectively (ThT concentration: 10 μM). Peptide concentrations varied from 10 to 100 μM, at pH 3.4 (0.2 M glycine HCl in water), pH 7.4 (0.2 M KH2PO4 in water, 0.2 M K2HPO4, in water) and pH 9.1 (0.2 M glycine NaOH in water). The microtiter plate was shaken prior to measurements. Fluorescence intensity (arbitrary units, u.a.) was recorded every 10 min, during 40 h. Resulting curves were analyzed by using GraphPad Prism. Data are the means of experiments performed in triplicate.

[3] = Solubility as observed when preparing biological assays; conditions: culture media; reason for exclusion from biological assays
[4] = Circular dichroism of the soluble peptide pool over time; assay type: physicochemical; conditions: pH 9.1, peptide 100 μM, 25 °C, between 5 and 22 h
Protocol: CD spectra were recorded on a Jasco J-815 apparatus (Lisses, France) using quartz cells (0.1 cm path length, Hellma GmbH, Müllheim, Germany). Each peptide was dissolved (final concentration: 100 μM) in appropriate buffer solution, at pH 9.1. After an equilibration period of 5 min at 25 °C, CD spectra were recorded over the 190 to 260 nm wavelength range. Measurements were carried out at 1 nm intervals. Data points were acquired every 0.5 nm in continuous scanning mode (speed = 20 nm.min^−1, bandwidth = 1 nm). CD spectra were recorded after 0, 5, 22 and 28 h (unit: mean residue ellipticity [θ]MRE, in deg.cm^2.dmol^−1). Acquisitions were carried out using the software Spectra Manager. Recorded data (mean of five scans) were treated with GraphPad Prism. Buffer background was subtracted to avoid buffer and cell contributions.

[5] = Transmission electron microscopy of aggregates; assay type: physicochemical
Protocol: Peptides were dissolved in appropriate buffer at pH 3.4, 7.4 and 9.1 to reach peptide stock solutions of 100 μM. Each peptide was incubated in an Eppendorf tube during 48 h. One drop (20 μL) of each peptide solution was adsorbed onto glow-discharged carbon coated 200 mesh copper grids. After 2 min, the grids were dried and negatively stained during 45 s with a 2.5% uranyl acetate solution. Grids were blotted, dried, and examined by using a Zeiss 912 Omega (Zeiss, Marly-le-Roi, France) […] or a JEOL 2100 HC (Croissy, France) […].

[6] = system: xenografted triple negative breast tumors; conditions: 1.5 mg/kg body weight, three times a week for four weeks, mice; cited from earlier work
inflammation and pain = conditions: cited from earlier work
[7] = cited from earlier work
Text: Then, we have explored the biological effects of the peptide 2, not only on cell survival (in vitro study) but also in pain (in vivo study). […] Our approach consisting in designing a minimalist active ERα17p-derived peptide, the pharmacologically inert KRSKK motif was excluded from our study. […] Regarding phenotypes, a GPER-dependent ...

[8] = assay type: physicochemical; conditions: for change of intensity of aliphatic proton signals (1H-NMR): 298 K, 65 h, 500 MHz
Protocol: ERα17p fibrilization was followed at 298 K by using a NMR spectrometer (Bruker AVANCE III 500 MHz) equipped with a triple resonance (^1H, ^15 N, ^13C) cryoprobe. Each sample (100 μM) was prepared extemporaneously in appropriate buffer at pH 3.4, 7.4 and 9.1. A 10:90 D2O:H2O mixture was added to the buffer to reach a final D2O percentage of 7.5%. The final volume was of 520 μL in a 5 mm tube. 1D proton experiments (eight scans) were carried out over 65 h, with a total of 258 spectra (1 spectrum each 15 min, 8 scan/spectrum). Spectra analysis was carried out with the Bruker Topspin software by focusing between 0.80 and 3.60 ppm aliphatic side-chains region.

[9] = system: GPER knockout (KO) MDA-MB-231 cells; assay: Cell growth by automated cell counting; assay type: cell-based, human; conditions: GPER KO MDA-MB-231, 72 h, increasing concentrations, 2.5% charcoal-stripped FBS, three independent experiments in triplicate
Protocol: (§1) MCF-7 (ER + , PR + , […] , GPER +) and HS578T (ER-, PR-, Her2-, GPER +) cells were cultured in RPMI-1640 and DMEM medium (Life Technologies, Courtaboeuf, France), respectively, supplemented with 10% (v/v) fetal bovine serum (FBS), 100 U/mL penicillin and 100 µg/mL streptomycin. MDA-MB-231 triple negative breast cancer cells were obtained from the ATCC (Manassas, VA, USA). Cells were maintained in DMEM/F12 (Dulbecco’s modified Eagle’s medium) with phenol red, supplemented with 5% fetal bovine serum (FBS) and 1% penicillin/streptomycin (Thermo Fisher Scientific, Monza, Italy). Cells were grown in a 37 °C incubator with 5% CO2.
(§2) Short guide RNA (sgRNA) sequence targeting human GPER was designed using the E-CRISP sgRNA Designer (http://www.e-crisp.org/E-CRISP/) and was cloned into the pSpCas9 (BB)-2A-Puro (PX459) plasmid, as previously described. The GPER sgRNA sequence used to generate the GPER knockout is as followed: sgGPER: 5′-[…]-3′. Next, the vector with sgRNA was transiently transfected into MDA-MB-231 cells using Lipofectamine LTX (Life Technologies, Milan Italy). […]
(§3) MDA-MB-231 WT and GPER KO cells were seeded in 24-well plates in regular growth medium. […] Cells were counted on day 4 using an automated cell counter (Life Technologies, Milan, Italy), following the manufacturer’s recommendations.

[10] = system: GPER (WT) MDA-MB-231 cells; assay: Cell growth by automated cell counting; assay type: cell-based, human; conditions: WT MDA-MB-231, 72 h, increasing concentrations, 2.5% charcoal-stripped FBS, three independent experiments in triplicate
Protocol: as §1, §2, §3

GPER = conditions: binding within the ligand-binding site of GPER; cited from earlier work
Protocol: In physiological conditions (complete serum) and at the concentration of 10 μM, ERα17p triggers membrane-initiated pro-apoptotic events, in both ERα-positive and -negative breast cancer cell lines with, however, a preference for ERα-positive cancer cells. It decreases the ratio Bcl-xl/Bax, increases cleaved caspase-9 and induces a redistribution of actin through a mechanism requiring PI3K, ROCK and p38 MAPK, depending on cell line[21],[22]. Moreover, ERα17p induces a proteasome-dependent decrease of the levels of the G protein-coupled estrogen receptor (GPER), of activated EGFR and ERK1/2 ...

[11] = pH 9.1 (glycine NaOH 0.2 M in water), peptide 100 μM, 48 h incubation

Molecule: CN1CC[C@]23c4c5ccc(O)c4O[C@H]2[C@@H](O)C=C[C@H]3[C@H]1C5 [morphine, reference compound]
- 50% paw withdrawal threshold (PWT) ([1]; 1 mg/kg, positive control, time not stated): 0.672 ± 0.041 g

Molecule: NSLALSLT [peptide 1]
- formation of aggregates (ThT fluorescence), fragments ([2]; pH 9.1 (glycine NaOH 0.2 M), peptide 100 μM, 40 h, ERα17p as reference): exponential increase of the fluorescence signal
- solubility for biological assays [3]: insufficiently soluble; also recorded: poor solubility
- decrease of the soluble pool (CD) [4]: 70%
- length of stacked fibrils (TEM) [5, 11]: 1.5 μm
- thickness of stacked fibrils (TEM) [5, 11]: 20 nm

Molecule: PLMIKRSKKNSLALSLT [ERα17p]
- formation of aggregates (ThT fluorescence) ([2]; pH 3.4 (0.2 M glycine HCl in water), peptide 10-100 μM, 40 h, ex 440/em 485 nm): No aggregation
- formation of aggregates (ThT fluorescence) ([2]; pH 7.4 (0.2 M KH2PO4/0.2 M K2HPO4 in water), peptide 50 and 100 μM, 40 h): exponential time-dependent increase of the formation of aggregates
- delay before formation of aggregates (ThT fluorescence) ([2]; pH 9.1 (0.2 M glycine NaOH in water), peptide 10 and 25 μM): 18 h
- formation of aggregates (ThT fluorescence) ([2]; pH 9.1 (0.2 M glycine NaOH in water), peptide 50 and 100 μM, 40 h): exponential time-dependent increase of the formation of aggregates
- decrease of the size of xenografted triple negative breast tumors [6]: about 50%
- 50% paw withdrawal threshold (PWT) ([1]; 1.25 mg/kg i.p., 45 min): 0.141 ± 0.025 g
- 50% paw withdrawal threshold (PWT) ([1]; 2.5 mg/kg i.p., 45 min): 0.293 ± 0.055 g
- calculated EC50 of anti-hyperalgesic action ([1]; from AUC (0-180 min) of PWT variations, i.p., CFA model, von Frey test): 3.7 ± 1.9 mg/kg
- dose from which anti-inflammatory and analgesic actions are supported (inflammation and pain): ≥ 2.5 mg/kg
- cellular internalization [7]: poorly internalized
- change of intensity of aliphatic proton signals (1H-NMR) ([8]; pH 3.4, peptide 100 μM): No significant change
- total amount of peptide remaining soluble (1H-NMR) ([8]; pH 7.4): about 40%
- change of intensity of aliphatic proton signals (1H-NMR) ([8]; pH 9.1, peptide 100 μM): decay of the proton signals followed by a plateau
- aggregates seen by TEM ([5]; pH 3.4, peptide 100 μM, 48 h incubation): no aggregate was detected
- morphology of aggregates by TEM ([5]; pH 7.4, peptide 100 μM, 48 h incubation): granulations resembling to a dense network of prefibrillar amyloid oligomers
- morphology of aggregates by TEM ([5]; pH 9.1, peptide 100 μM): entanglement network of mature amyloid fibrils
- length of amyloid fibrils (TEM) ([5]; pH 9.1, peptide 100 μM, 48 h incubation): > 1 μm
- effect on cell viability [9]: inactive
- effect on cell viability [10]: able to reduce the viability
- Kd (GPER): micromolar range
